US10654808B2, “Tyrosine kinase inhibitor and pharmaceutical composition comprising same” (GUANGDONG RAYNOVENT BIOTECH CO., LTD., priority 2015, dated 2020)

Key:
Format in all cases: biochemical
[1] = molecular target: T1, VEGFR2 (Homo sapiens, UniProt P35968); experiment: Z'-LYTE in vitro enzyme activity assay, VEGFR2; settings: 100 μM ATP, 60 minutes, room temperature; read-out: IC50 detected by Z'-LYTE, VEGFR2
T1 construct: purchased Life technology
Protocol: (§1) The enzyme activity was measured by Z′-LYTE™ Detection Kinase Assay. The IC50 value of the compounds was used as an index to evaluate the inhibitory effect of the compounds on VEGFR2, FGFR1 and PDGFRB.
(§2) Recombinant human VEGFR2 and FGFR1 proteases were purchased from Life technology, PDGFRB Protease was purchased from Millipore.
(§3) Z-LYTE™ Kit Tyr1 and Tyr4 were purchased from Life technology. Multi-microplate reader, Envision (PerkinElmer) read board was used.
(§4) The test compounds were diluted 3 times with a concentration gradient, the final concentration was from 10 μM to 0.17 nM with a total of 11 concentrations, and each concentration had two parallel holes; the content of DMSO in the assay was 1%.
3 nM VEGFR2 protein kinase, 2 μM Tyr1 peptide, 100 μM ATP, 50 mM HEPES (pH 7.5), 10 mM MgCl2, 1 mM EGTA, 0.01% BRIJ-35. The detector plate was Black Proxiplate 384-Plus plate (PerkinElmer), the reaction was performed at room temperature for 60 minutes, and the reaction system was 10 μl.
(§5) The reaction was stopped by adding 5 μl of DV reagent B (1:128) to the kinase reaction solution and incubated at 23° C. for 60 minutes. The Envision instrument was used to read the plate.
(§6) The data was converted to phosphorylation rate and inhibition rate and the 4 parameter curve fitting (Model 205 in XLFIT5, iDBS) was used to get IC50 data of the compounds.

[2] = molecular target: T2, FGFR1 (Homo sapiens, UniProt P11362); experiment: Z'-LYTE in vitro enzyme activity assay, FGFR1; settings: 25 μM ATP, 60 minutes, room temperature; read-out: IC50 detected by Z'-LYTE, FGFR1
T2 construct: purchased Life technology
Protocol: as §1, §2, §3, §4
(§7) 1 nM FGFR1 protein kinase, 2 μM Tyr4 peptide, 25 μM ATP, 50 mM HEPES (pH 7.5), 10 mM MgCl2, 1 mM EGTA, 0.01% BRIJ-35, 2 mM MnCl2, 1 mM DTT. The detector plate was Black Proxiplate 384-Plus plate (PerkinElmer), the reaction was performed at room temperature for 60 minutes, and the reaction system was 10 μl.
as §5, §6

[3] = molecular target: T3, PDGFRB (Homo sapiens, UniProt P09619); experiment: Z'-LYTE in vitro enzyme activity assay, PDGFRB; settings: 100 μM ATP, 60 minutes, room temperature; read-out: IC50 detected by Z'-LYTE, PDGFRB
T3 construct: purchased Millipore
Protocol: as §1, §2, §3, §4
as §7, with “40 nM PDGFRB” for “1 nM FGFR1”, “40 nM PDGFRB protein kinase,” for “1 nM FGFR1 protein kinase,”, “Tyr4 peptide, 100 μM ATP,” for “Tyr4 peptide, 25 μM ATP,”
as §5, §6

T3 sequence (P09619 33-1106): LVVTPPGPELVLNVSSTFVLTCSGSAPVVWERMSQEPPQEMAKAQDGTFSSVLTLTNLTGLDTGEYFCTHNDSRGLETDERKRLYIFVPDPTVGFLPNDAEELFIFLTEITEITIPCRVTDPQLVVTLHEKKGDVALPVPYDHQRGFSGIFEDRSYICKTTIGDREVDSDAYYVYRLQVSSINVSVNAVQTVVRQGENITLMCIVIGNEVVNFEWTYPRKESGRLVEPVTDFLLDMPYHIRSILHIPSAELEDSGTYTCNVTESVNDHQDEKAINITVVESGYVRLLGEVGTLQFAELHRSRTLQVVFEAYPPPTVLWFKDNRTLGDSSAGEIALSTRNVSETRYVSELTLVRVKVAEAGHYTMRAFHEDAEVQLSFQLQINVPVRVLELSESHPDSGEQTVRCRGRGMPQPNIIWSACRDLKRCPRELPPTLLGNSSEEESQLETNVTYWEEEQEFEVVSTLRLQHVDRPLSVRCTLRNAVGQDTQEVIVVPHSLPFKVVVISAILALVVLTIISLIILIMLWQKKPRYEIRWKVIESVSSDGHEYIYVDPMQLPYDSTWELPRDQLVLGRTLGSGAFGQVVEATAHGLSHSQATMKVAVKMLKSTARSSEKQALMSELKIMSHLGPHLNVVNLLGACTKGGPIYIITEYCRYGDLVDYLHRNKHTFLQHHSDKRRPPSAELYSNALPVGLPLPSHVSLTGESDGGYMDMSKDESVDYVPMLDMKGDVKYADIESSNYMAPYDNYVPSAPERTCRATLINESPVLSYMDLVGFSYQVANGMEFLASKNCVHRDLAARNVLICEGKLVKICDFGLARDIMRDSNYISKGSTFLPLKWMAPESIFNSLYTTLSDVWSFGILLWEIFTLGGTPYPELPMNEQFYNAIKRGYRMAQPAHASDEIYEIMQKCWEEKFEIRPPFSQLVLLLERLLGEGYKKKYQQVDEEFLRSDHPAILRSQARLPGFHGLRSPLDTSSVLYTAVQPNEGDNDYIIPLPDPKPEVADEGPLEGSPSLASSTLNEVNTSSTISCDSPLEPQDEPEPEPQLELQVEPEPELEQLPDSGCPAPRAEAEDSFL
T1 sequence (P35968 20-1356): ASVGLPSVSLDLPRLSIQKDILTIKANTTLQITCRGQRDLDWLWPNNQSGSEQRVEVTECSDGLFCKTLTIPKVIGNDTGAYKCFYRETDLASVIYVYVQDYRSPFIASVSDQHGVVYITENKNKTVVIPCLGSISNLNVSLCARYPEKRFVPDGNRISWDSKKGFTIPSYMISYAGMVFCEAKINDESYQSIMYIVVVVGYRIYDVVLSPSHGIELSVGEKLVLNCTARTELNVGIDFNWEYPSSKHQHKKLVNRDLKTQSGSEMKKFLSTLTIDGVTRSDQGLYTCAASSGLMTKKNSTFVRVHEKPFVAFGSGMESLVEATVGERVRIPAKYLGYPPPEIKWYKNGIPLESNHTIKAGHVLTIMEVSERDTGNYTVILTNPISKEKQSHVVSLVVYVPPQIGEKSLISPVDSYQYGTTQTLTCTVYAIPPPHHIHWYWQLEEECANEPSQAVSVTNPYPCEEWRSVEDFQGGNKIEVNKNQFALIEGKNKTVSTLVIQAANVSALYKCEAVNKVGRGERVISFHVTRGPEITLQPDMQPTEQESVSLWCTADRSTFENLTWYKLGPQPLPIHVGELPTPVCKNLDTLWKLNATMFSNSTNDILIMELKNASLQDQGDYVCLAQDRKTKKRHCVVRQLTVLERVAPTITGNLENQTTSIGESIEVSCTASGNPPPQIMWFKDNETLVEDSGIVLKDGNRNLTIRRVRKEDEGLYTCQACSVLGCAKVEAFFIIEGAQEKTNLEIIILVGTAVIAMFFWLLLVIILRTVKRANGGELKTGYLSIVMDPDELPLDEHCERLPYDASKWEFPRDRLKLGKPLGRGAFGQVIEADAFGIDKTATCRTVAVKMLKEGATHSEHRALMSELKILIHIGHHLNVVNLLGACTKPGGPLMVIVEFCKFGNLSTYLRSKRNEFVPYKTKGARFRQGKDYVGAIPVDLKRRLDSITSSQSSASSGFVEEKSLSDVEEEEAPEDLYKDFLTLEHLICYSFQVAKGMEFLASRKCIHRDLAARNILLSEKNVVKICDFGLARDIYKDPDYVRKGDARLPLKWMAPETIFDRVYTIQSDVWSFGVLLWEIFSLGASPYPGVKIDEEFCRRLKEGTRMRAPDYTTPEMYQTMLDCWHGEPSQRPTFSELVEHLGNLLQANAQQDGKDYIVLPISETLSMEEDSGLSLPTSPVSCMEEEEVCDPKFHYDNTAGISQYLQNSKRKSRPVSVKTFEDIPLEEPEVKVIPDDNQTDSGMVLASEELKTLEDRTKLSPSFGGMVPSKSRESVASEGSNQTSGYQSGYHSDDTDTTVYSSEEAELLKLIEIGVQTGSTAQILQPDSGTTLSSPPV
T2 sequence (P11362 22-822): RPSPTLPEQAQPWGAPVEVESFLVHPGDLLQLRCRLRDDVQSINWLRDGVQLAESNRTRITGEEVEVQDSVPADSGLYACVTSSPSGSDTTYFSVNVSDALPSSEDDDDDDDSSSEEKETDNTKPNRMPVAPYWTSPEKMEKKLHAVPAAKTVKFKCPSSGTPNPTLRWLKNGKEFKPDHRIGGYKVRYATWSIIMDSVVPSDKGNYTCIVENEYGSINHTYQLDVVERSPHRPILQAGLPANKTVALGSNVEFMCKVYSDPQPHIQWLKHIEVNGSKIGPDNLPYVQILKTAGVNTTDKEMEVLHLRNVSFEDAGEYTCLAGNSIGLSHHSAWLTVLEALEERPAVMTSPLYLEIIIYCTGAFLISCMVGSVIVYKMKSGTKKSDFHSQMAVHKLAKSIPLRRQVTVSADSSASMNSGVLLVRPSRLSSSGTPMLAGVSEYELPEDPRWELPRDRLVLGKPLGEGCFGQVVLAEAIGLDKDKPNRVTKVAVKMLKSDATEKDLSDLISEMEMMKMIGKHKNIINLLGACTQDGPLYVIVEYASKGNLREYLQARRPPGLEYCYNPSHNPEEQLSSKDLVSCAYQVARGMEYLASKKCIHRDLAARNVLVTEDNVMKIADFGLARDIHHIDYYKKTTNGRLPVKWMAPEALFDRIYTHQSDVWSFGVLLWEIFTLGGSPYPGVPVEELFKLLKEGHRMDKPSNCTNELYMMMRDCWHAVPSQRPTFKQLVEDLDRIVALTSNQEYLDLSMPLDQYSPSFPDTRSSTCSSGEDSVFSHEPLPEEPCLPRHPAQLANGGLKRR

Structure (SMILES) | IC50 [1] [nM] | IC50 [2] [nM] | IC50 [3] [nM]
COc1cc2nccc(Oc3ccc4nc(NCC(F)F)sc4c3)c2cc1C(N)=O [Example 157] | 200 to 1000 | 200 to 1000 | 200 to 1000
COc1cc2nccc(Oc3ccc(NC(=S)NC4CCOCC4)c(Cl)c3)c2cc1C(N)=O [Example 15] | 200 to 1000 | 200 to 1000 | 50 to 200
COc1cc2nccc(Oc3ccc(NC(=S)NCc4ccc(Cl)cc4)c(Cl)c3)c2cc1C(N)=O [Example 9] | 200 to 1000 | 200 to 1000 | < 50
COc1cc2ncc(Cl)c(Oc3ccc(NC(=S)N4CCCC4)c(Cl)c3)c2cc1C(N)=O [Example 88] | 200 to 1000 | 200 to 1000 | 200 to 1000
CCN(CC)CCOc1cc2nccc(Oc3ccc(NC(=S)NC4CC4)c(Cl)c3)c2cc1C(N)=O [Example 31] | 200 to 1000 | 200 to 1000 | 200 to 1000
COc1cc2nccc(Oc3ccc4c(C(=O)N5CCCC5)coc4c3)c2cc1C(N)=O [Example 206] | 200 to 1000 | 200 to 1000 | 200 to 1000
COc1cc2nccc(Oc3ccc(Nc4c(NCCC#N)c(=O)c4=O)c(Cl)c3)c2cc1C(N)=O [Example 137] | 200 to 1000 | 200 to 1000 | 200 to 1000
COc1cc2nccc(Oc3cc(Cl)c4c(C(=O)N5CCCC5)coc4c3)c2cc1C(N)=O [Example 194] | 200 to 1000 | 200 to 1000 | 200 to 1000
COc1cc2nccc(Oc3ccc(CC(=O)N4CC(F)(F)C4)cc3)c2cc1C(N)=O [Example 177] | 200 to 1000 | 200 to 1000 | 50 to 200
COc1cc2nccc(Oc3ccc(NC(=O)N4CC[C@@H](O)C4)c(Cl)c3F)c2cc1C(N)=O [Example 115] | 200 to 1000 | 200 to 1000 | 200 to 1000
COc1cc2nccc(Oc3ccc(Nc4c(NCCc5ccccc5)c(=O)c4=O)c(Cl)c3)c2cc1C(N)=O [Example 154] | 200 to 1000 | 200 to 1000 | 200 to 1000
COc1cc2nccc(Oc3ccc(NC(=S)NCc4ccc(F)cc4)c(Cl)c3)c2cc1C(N)=O [Example 17] | 200 to 1000 | 200 to 1000 | 50 to 200
COc1cc2nccc(Oc3ccc4c(c3)CCCN4C(=S)NCC(F)F)c2cc1C(N)=O [Example 34] | 200 to 1000 | 200 to 1000 | 50 to 200
COc1cc2nccc(Oc3ccc(NC(=S)NC4CC4)c(Cl)c3)c2cc1C(=O)N1CC(F)(F)C1 [Example 53] | 200 to 1000 | 200 to 1000 | 50 to 200
COCCCNc1c(Nc2ccc(Oc3ccnc4cc(OC)c(C(N)=O)cc34)cc2Cl)c(=O)c1=O [Example 141] | 200 to 1000 | 200 to 1000 | 200 to 1000
COc1cc2nccc(Oc3ccc4c(c3)CCN4C(=S)NC3CC3)c2cc1C(N)=O [Example 24] | 200 to 1000 | 200 to 1000 | 200 to 1000

Structure (SMILES) | IC50 [1] [nM] | IC50 [2] [nM] | IC50 [3] [nM]
COc1cc2nccc(Oc3ccc(NC(=S)NC4(C(F)(F)F)CC4)c(Cl)c3)c2cc1C(N)=O [Example 76] | 200 to 1000 | 200 to 1000 | 200 to 1000
COc1cc2nccc(Oc3ccc4c(NC(=S)NC5CC5)nn(C)c4c3)c2cc1C(N)=O [Example 193] | 200 to 1000 | 200 to 1000 | 50 to 200
COc1cc2nccc(Oc3ccc(Nc4c(Nc5cccc(C(F)(F)F)c5)c(=O)c4=O)c(Cl)c3)c2cc1C(N)=O [Example 155] | 200 to 1000 | 200 to 1000 | < 50
COc1cc2nccc(Oc3ccc(NC(=S)NC4CC4)c(Cl)c3)c2cc1C(=O)N1CCCCC1 [Example 49] | 200 to 1000 | 200 to 1000 | 50 to 200
COc1cc2nccc(Oc3ccc(NC(=S)Nc4ccc(Cl)c(F)c4)c(Cl)c3)c2cc1C(N)=O [Example 3] | 200 to 1000 | 200 to 1000 | 200 to 1000
COc1cc2nccc(Oc3ccc(NC(=S)Nc4cccnc4)c(Cl)c3)c2cc1C(N)=O [Example 10] | 50 to 200 | 200 to 1000 | 50 to 200
COc1cc2nccc(Oc3ccc(NC(=S)N4CC[C@H](O)C4)c(Cl)c3)c2cc1C(N)=O [Example 74] | 50 to 200 | 200 to 1000 | 200 to 1000
COc1cc2nccc(Oc3ccc(NC(=S)NCc4ccccn4)c(Cl)c3)c2cc1C(N)=O [Example 11] | 200 to 1000 | 200 to 1000 | 50 to 200
COc1cc2nccc(Oc3ccc(NC(=S)N4CC[C@@H](O)C4)c(Cl)c3F)c2cc1C(N)=O [Example 111] | 50 to 200 | 50 to 200 | 200 to 1000
COC(=O)c1cc2c(Oc3ccc(NC(=S)N4CC(F)(F)C4)c(Cl)c3)ccnc2cc1OC [Example 178] | 200 to 1000 | 200 to 1000 | 200 to 1000
COc1cc2nccc(Oc3ccc4c(C(=O)N5CC(F)(F)C5)coc4c3)c2cc1C(N)=O [Example 187] | 200 to 1000 | 200 to 1000 | 200 to 1000
COc1cc2nccc(Oc3ccc(NC(=S)NCCc4ccccc4)c(Cl)c3)c2cc1C(N)=O [Example 14] | 200 to 1000 | 200 to 1000 | 50 to 200
COc1cc2nccc(Oc3cc4occ(C(=O)NC5CC5)c4cc3Cl)c2cc1C(N)=O [Example 199] | 50 to 200 | 200 to 1000 | < 50
COc1cc2nccc(Oc3ccc4c(C(=O)N5CC[C@H](F)C5)coc4c3)c2cc1C(N)=O [Example 205] | 200 to 1000 | 200 to 1000 | 200 to 1000
C#CCNC(=S)Nc1ccc(Oc2ccnc3cc(OC)c(C(N)=O)cc23)cc1Cl [Example 92] | 50 to 200 | 200 to 1000 | 50 to 200

Continued, values first:

IC50 [1] [nM] | IC50 [2] [nM] | IC50 [3] [nM] | Structure (SMILES)
50 to 200 | 200 to 1000 | 200 to 1000 | COc1cc2nccc(Oc3ccc(NC(=S)NC4CC4)c(Cl)c3)c2cc1C(=O)NC1CC1 [Example 54]
50 to 200 | 200 to 1000 | 50 to 200 | COc1cc2nccc(Oc3ccc(NC(=S)N[C@@H](C)CO)c(Cl)c3)c2cc1C(N)=O [Example 22]
50 to 200 | 200 to 1000 | 200 to 1000 | O=C(Nc1ccc(Oc2ccnc3cc(-c4cncn4-c4ccccc4)ccc23)c(F)c1Cl)NC1CC1 [Example 227]
< 50 | 200 to 1000 | 50 to 200 | COc1cc2nccc(Oc3ccc(NC(N)=S)c(Cl)c3)c2cc1C(N)=O [Example 57]
< 50 | 200 to 1000 | 200 to 1000 | COc1ccc2c(Oc3ccc(NC(=S)NC4CC4)c(Cl)c3)ccnc2c1 [Example 170]
50 to 200 | 200 to 1000 | 50 to 200 | COc1cc2nccc(Oc3cc(F)c(NC(=S)NC4CC4)c(F)c3)c2cc1C(N)=O [Example 83]
50 to 200 | 200 to 1000 | 50 to 200 | CCN(CC)CCCNC(=O)c1cc2c(Oc3ccc(NC(=S)NC4CC4)c(Cl)c3)ccnc2cc1OC [Example 40]
50 to 200 | 200 to 1000 | 200 to 1000 | COc1cc2nccc(Oc3cc(F)c(NC(=S)N4CCCC4)c(F)c3)c2cc1C(N)=O [Example 91]
50 to 200 | 200 to 1000 | 50 to 200 | COc1cc2nccc(Oc3ccc(NC(=O)N4CC[C@H](O)C4)c(Cl)c3F)c2cc1C(N)=O [Example 118]
50 to 200 | 200 to 1000 | 200 to 1000 | COCCNC(=O)c1cc2c(Oc3ccc(NC(=S)NC4CC4)c(Cl)c3)ccnc2cc1OC [Example 62]
50 to 200 | 200 to 1000 | 50 to 200 | COc1cc2nccc(Oc3ccc(NC(=S)NCc4ccncc4)c(Cl)c3)c2cc1C(N)=O [Example 5]
50 to 200 | 200 to 1000 | 200 to 1000 | COc1cc2nccc(Oc3ccc(NC(=S)NC4CC4)c(Cl)c3)c2cc1C(=O)NCC(F)(F)F [Example 38]
50 to 200 | 200 to 1000 | < 50 | COc1cc2nccc(Oc3ccc(NC(=S)NCc4cccnc4)c(Cl)c3)c2cc1C(N)=O [Example 20]
50 to 200 | 200 to 1000 | 50 to 200 | COc1cc2nccc(Oc3ccc(NC(=O)N4CCCC4)c(Cl)c3F)c2cc1C(N)=O [Example 120]
< 50 | 200 to 1000 | 50 to 200 | COc1cc2nccc(Oc3ccc(NC(=S)NC(C)C)c(Cl)c3)c2cc1C(N)=O [Example 52]
